{"source": "paper PMC7284374", "about": "(Pharmaceutics, 2020)", "key": {"in vivo [1]": {"experiment": "in vivo", "settings": "rat, plasma, iv, 30 mg/kg"}, "[2]": {"settings": "10 µM metformin", "protocol": "(§1) Hepatic and intestinal microsomes were prepared by the previously reported method as followings [17, 37, 38]: freshly excised livers were cut in pieces, washed extensively with ice-cold solution (KCl 0.15 M) to remove remaining blood and were homogenized with Tris-HCl buffer (pH 7.5) containing 0.15 M KCl + 50 mM Tris, 1 mM EDTA in a Potter-Elvehjem glass homogenizer for 30 s. The homogenate was centrifuged for 10 min at 10,000× g and 4 °C and then followed by ultracentrifugation of the remaining supernatant for 1 h at 100,000× g and 4 °C. Microsomal pellets were then re-suspended in the same buffer with a hand homogenizer and re-centrifuged for 1 h at 100,000× g and 4 °C. The supernatant was discarded, and the microsomal pellets were carefully overlaid with 0.15 mol KCl buffer and stored at −80 °C. Intestinal microsomes were prepared using freshly excised proximal and middle sections of the small intestine. […]\n(§2) The unweighted kinetic data from the hepatic and intestinal microsomes were fitted using a single-site Michaelis−Menten equation; V = Vmax × [S]/(Km + [S]), in which [S] was the substrate concentration. The intrinsic clearance (CLint) was calculated by dividing the Vmax by the Km."}, "in vivo [3]": {"experiment": "in vivo", "settings": "rat, plasma, po, 30 mg/kg"}, "[4]": {"settings": "10 µM metformin", "remark": "listed apart in the source", "protocol": "as §1, §2"}, "in vivo [5]": {"experiment": "in vivo", "settings": "rat"}, "[6]": {"settings": "cited from earlier work"}, "[7]": {"experiment": "Intravenous pharmacokinetics of verapamil and norverapamil with and without metformin in rats", "settings": "for CL renal: plasma and urine, CLR; for half-life: Terminal half-life; for GI24 h: gastrointestinal tract at 24 h; for Ae0–24 h: urine up to 24 h"}, "[8]": {"experiment": "Oral pharmacokinetics of verapamil and norverapamil with and without metformin in rats", "settings": "for CL renal: plasma and urine, CLR; for half-life: Terminal half-life; for GI24 h: gastrointestinal tract at 24 h; for Ae0–24 h: urine up to 24 h"}, "[9]": {"settings": "rats, intravenous administration of both drugs together"}, "[10]": {"settings": "rats, oral administration of both drugs together"}, "[11]": {"settings": "rat, plasma, iv, 20 mg/kg, rats, iv verapamil 20 mg/kg, with metformin 30 mg/kg"}, "[12]": {"settings": "rat, plasma, iv, 20 mg/kg, rats, iv verapamil 20 mg/kg, without metformin"}, "[13]": {"settings": "rats, iv verapamil 20 mg/kg, with metformin 30 mg/kg"}, "[14]": {"settings": "rats, iv verapamil 20 mg/kg, without metformin"}, "[15]": {"settings": "rat, plasma, po, 20 mg/kg, rats, oral verapamil 20 mg/kg, with metformin 30 mg/kg"}, "[16]": {"settings": "rat, plasma, po, 20 mg/kg, rats, oral verapamil 20 mg/kg, without metformin"}, "[17]": {"settings": "rats, oral verapamil 20 mg/kg, with metformin 30 mg/kg"}, "[18]": {"settings": "rats, oral verapamil 20 mg/kg, without metformin"}}, "note": "Structures can show the parent of a compound that is named as a salt. Where two headings read alike, the source gives them in different places.", "data": [{"compound": "CN(C)C(=N)N=C(N)N", "note": "[metformin, Metformin hydrochloride]", "values": [{"measurement": "AUC", "setting": "in vivo [1]", "result": 26500, "unit": "ng·h/mL"}, {"measurement": "MRT", "setting": "in vivo [1]", "result": 0.357, "unit": "h"}, {"measurement": "Vd", "setting": "in vivo [1]", "result": "0.349 ± 0.128", "unit": "L/kg"}, {"measurement": "effect of metformin on verapamil metabolism", "setting": "[2]", "result": "did not affect verapamil metabolism"}, {"measurement": "AUC", "setting": "in vivo [3]", "result": 7870, "unit": "ng·h/mL"}, {"measurement": "Cmax", "setting": "in vivo [3]", "result": "2000 ± 328", "unit": "ng/mL"}, {"measurement": "effect of metformin on verapamil metabolism", "setting": "[4]", "result": "did not affect verapamil metabolism"}, {"measurement": "concentration at 0.5 h", "setting": "in vivo [5]", "result": "2910 ± 894", "unit": "ng/mL"}, {"measurement": "renal excretion of metformin (OCT2-mediated)", "setting": "[6]", "result": "~ 70 % of the metformin dose"}]}, {"compound": "COc1ccc(CCNCCCC(C#N)(c2ccc(OC)c(OC)c2)C(C)C)cc1OC", "note": "(stereo not drawn) [norverapamil]", "values": [{"measurement": "CL renal", "setting": "[7]; rat, iv, 20 mg/kg, rats, iv verapamil 20 mg/kg, with metformin 30 mg/kg", "result": "0.0626 ± 0.0535", "unit": "mL/min/kg"}, {"measurement": "CL renal", "setting": "[7]; rat, iv, 20 mg/kg, rats, iv verapamil 20 mg/kg, without metformin", "result": "0.109 ± 0.102", "unit": "mL/min/kg"}, {"measurement": "Tmax", "setting": "[7]; rat, plasma, iv, 20 mg/kg", "result": 1, "unit": "h"}, {"measurement": "AUC", "setting": "[7]; [11]", "result": 3320, "unit": "ng·h/mL"}, {"measurement": "AUC", "setting": "[7]; [12]", "result": 3130, "unit": "ng·h/mL"}, {"measurement": "Cmax", "setting": "[7]; [11]", "result": "1090 ± 308", "unit": "ng/mL"}, {"measurement": "Cmax", "setting": "[7]; [12]", "result": "1240 ± 386", "unit": "ng/mL"}, {"measurement": "half-life", "setting": "[7]; [11]", "result": "1.05 ± 0.253", "unit": "h"}, {"measurement": "half-life", "setting": "[7]; [12]", "result": "0.847 ± 0.17", "unit": "h"}, {"measurement": "GI24 h", "setting": "[7]; [13]", "result": "0.126 ± 0.0927 % of dose"}, {"measurement": "Tmax", "setting": "[7]; rats, iv verapamil 20 mg/kg, with metformin 30 mg/kg, median (range)", "result": "60 (30−90) min"}, {"measurement": "Ae0–24 h", "setting": "[7]; [13]", "result": "0.0585 ± 0.0453 % of dose"}, {"measurement": "GI24 h", "setting": "[7]; [14]", "result": "0.146 ± 0.0841 % of dose"}, {"measurement": "Ae0–24 h", "setting": "[7]; [14]", "result": "0.0872 ± 0.0691 % of dose"}, {"measurement": "CL renal", "setting": "[8]; rat, po, 20 mg/kg, rats, oral verapamil 20 mg/kg, with metformin 30 mg/kg", "result": "0.562 ± 0.445", "unit": "mL/min/kg"}, {"measurement": "CL renal", "setting": "[8]; rat, po, 20 mg/kg, rats, oral verapamil 20 mg/kg, without metformin", "result": "0.336 ± 0.107", "unit": "mL/min/kg"}, {"measurement": "Tmax", "setting": "[8]; rat, plasma, po, 20 mg/kg", "result": 0.75, "unit": "h"}, {"measurement": "AUC", "setting": "[8]; [15]", "result": 898, "unit": "ng·h/mL"}, {"measurement": "AUC", "setting": "[8]; [16]", "result": 1140, "unit": "ng·h/mL"}, {"measurement": "Cmax", "setting": "[8]; [15]", "result": "273 ± 123", "unit": "ng/mL"}, {"measurement": "Cmax", "setting": "[8]; [16]", "result": "267 ± 141", "unit": "ng/mL"}, {"measurement": "half-life", "setting": "[8]; [15]", "result": "1.95 ± 0.742", "unit": "h"}, {"measurement": "half-life", "setting": "[8]; [16]", "result": "2.8 ± 1.22", "unit": "h"}, {"measurement": "GI24 h", "setting": "[8]; [17]", "result": "0.0782 ± 0.0514 % of dose"}, {"measurement": "Tmax", "setting": "[8]; rats, oral verapamil 20 mg/kg, with metformin 30 mg/kg, median (range)", "result": "45 (15–105) min"}, {"measurement": "Ae0–24 h", "setting": "[8]; [17]", "result": "0.113 ± 0.0522 % of dose"}, {"measurement": "GI24 h", "setting": "[8]; [18]", "result": "0.0870 ± 0.0665 % of dose"}, {"measurement": "Ae0–24 h", "setting": "[8]; [18]", "result": "0.104 ± 0.0567 % of dose"}]}, {"compound": "COc1ccc(CCN(C)CCCC(C#N)(c2ccc(OC)c(OC)c2)C(C)C)cc1OC", "note": "(stereo not drawn) [verapamil, Verapamil hydrochloride]", "values": [{"measurement": "effect of verapamil on the metformin concentration in the liver", "setting": "[9]", "result": "did not cause any change"}, {"measurement": "effect of verapamil on the metformin concentration in the liver", "setting": "[10]", "result": "did not cause any change"}]}]}
